Values quoted from earlier work, collected in patent publication US11707272B2, “Packaged antimicrobial medical device having improved shelf life and method of preparing same” (ETHICON, LLC, priority 2012, dated 2023).

Tested on: S. aureus
Settings: measured in a suitable growth medium; as described by Bhargava, H. et al, American Journal of Infection Control, June 1996

## Oc1cc(Cl)ccc1Oc1ccc(Cl)cc1Cl [2,4,4′-trichloro-2′-hydroxydiphenyl ether]
  minimum inhibitory concentration (MIC) against S. aureus: 0.01 ppm
